# Measured values: patent US20100221763A1, “Specific Acceptors for Transferases to Saccharides and Method for Obtaining and Using Same” (Health Research, Inc, priority 2005, published 2010)
# Assays:
# Siglec 4 (MAG) = conditions: Blixt et al. (49); cited from earlier work
# [1] = system: β-GlcNAc:β1,4GalNAc-T of colon tumor CC9338; assay: β-GlcNAc:β1,4GalNAc-T assay, colon tumor extract; type: biochemical, human; conditions: other acceptors, 1 mg protein of the tissue extract
# Method: (§1) Colon tumor tissue (CC9338) and breast tumor tissue (BC9400) were obtained during surgical procedures at Roswell Park Cancer Institute and stored frozen within 1 h at −70° C. The tissues were homogenized at 4° C. with 4 volumes of 0.1M Tris Maleate […] 0.1% NaN3 using kinematica. After adjusting the concentration of Triton X-100 to 2%, these homogenates were mixed in the cold room for 1 h using Speci-Mix (Thermolyne) and then centrifuged at 20,000 g for 1 h at 4° C. The clear fat-free supernatant was stored frozen at −20° C. until use. Aliquots of 10 μL from this extract were used in assays run in duplicates. Glycosyltransferase activity in cell lysate was determined by mixing the lysates with acceptor and radiolabeled donor (monosaccharide) under the reaction conditions detailed below, followed by separation of un-reacted donor from the radioactive product using anionic or hydrophobic chromatography. In all cases, the radioactive content of isolated products was determined by using 3a70 scintillation cocktail (Research Products International, Mount Prospect, Ill.) and a Beckman LS6500 scintillation counter. Controls for each assay contained the reaction mixture with everything except the acceptor. All assays were run in duplicate.
# (§2) The acceptors used for measuring the glycosyltransferase and sulfotransferase activities are given in Table I. The following are the conditions for individual enzymatic assays. Reaction temperature in all cases was 37° C. α2,3- and α2,6 sialytransferase (ST) assay reactions proceeded for 2 h in a mixture containing 100 mM sodium cacodylate buffer (pH 6.0), 7.5 mM acceptor, CMP-[9-^3H]NeuAc (typically 0.2 μCi) and 10 μl cell extract in a total volume of 20 μl [Chandrasekaran et al., 1995]. βGlcNAc:β1,4Gal-T and αGalNAc:β1,3Gal-T assay mixtures in duplicate contained 0.1M Hepes-NaOH pH 7.0, 7 mM ATP, 20 mM Mn acetate, 1 mM UDP-Gal, UDP [^14C]Gal (0.05 μCi; 327mCi/mmol; Amersham), 0.5 mM acceptor (unless otherwise stated) and the enzyme in a total volume of 20 μL. It was incubated for 4 h [Chandrasekaran et al., 2001]. βGlcNAc:β1,4GalNAc-T assay mixtures in duplicate contained 0.1M Hepes-NaOH pH 7.0, 7 mM ATP, 20 mM Mn acetate. UDP [^3H] GalNAc (0.20 μCi; 7.8 Ci/mmol: New England Nuclear Corp.) 7.5 mM acceptor (unless otherwise stated) and the enzyme in a total volume of 20 μL and incubated for 4 h [Chandrasekaran et al., 2001].
# (§3) Dowex-1-C1 or Sep-Pak C18 cartridges were used to isolate radiolabeled product from the reaction mixture. For GalT, GalNAc-T and FT assays, the incubation mixture was diluted with 1 ml water and passed through a 1 ml Dowex-1-C1 column [Chandrasekaran et al., 1996; Chandrasekaran et al., 2001]. The column was washed twice with 1 ml of water. The breakthrough and the water wash contained the [^14C]-galactosylated or [^14C]-fucosylated products formed with neutral acceptors. 3 ml of 0.1M NaCl was used to obtain [^14C]-fucosylated products from sialylated acceptors after water elution. For sialytransferase assays, the radioactive products from benzylglycosides were separated by hydrophobic chromatography on Sep-Pak C18 cartridge (Waters, Milford, Mass.), and elution of the product was done with 3 ml methanol [Palcic et al., 1988]. For sulfotransferase assays, elution of the [^35S]-sulfated compound from Dowex-1-C1 column was achieved by 3 ml of 0.2M NaCl [Chandrasekaran et al., 2004].
# [2] = system: β-GlcNAc:β1,4Gal-T of breast tumor BC9400; assay: β-GlcNAc:β1,4Gal-T assay, breast tumor extract; type: biochemical, human; conditions: other acceptors, 1 mg protein of the tissue extract
# Method: as §1, §2, §3
# [3] = system: β-GlcNAc:β1,4GalNAc-T of breast tumor BC9400; assay: β-GlcNAc:β1,4GalNAc-T assay, breast tumor extract; type: biochemical, human; conditions: other acceptors, 1 mg protein of the tissue extract
# Method: as §1, §2, §3
# [4] = system: β-GlcNAc:β1,4Gal-T of colon tumor CC9338; assay: β-GlcNAc:β1,4Gal-T assay, colon tumor extract; type: biochemical, human; conditions: other acceptors, 1 mg protein of the tissue extract
# Method: as §1, §2, §3
# [5] = system: α1,2-L-FT plus α1,4-L-FT of colon tumor CC9338; assay: α1,2-L-FT plus α1,4-L-FT assay, colon tumor extract; type: biochemical, human; conditions: 1 mg protein of the tissue extract
# Method: as §1, with “duplicate. […]” for “duplicate.”
# LNCaP α2,3(O)ST = assay: Sialyltransferase assay with LNCaP cell extract; type: biochemical, human; conditions: Table I; acceptor 7.5 mM; 100% = 30930 CPM (3-O-MeGalβ1,4GlcNAcβ1,6(Galβ1,3)GalNAcα-O-Bn)
# Outline: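 LNCaP Triton X-100 extract (5 mg protein/ml; 0.1M Tris-maleate pH6.3) incubated with acceptor (typically 7.5 mM) and CMP-[9-3H]NeuAc (typically 0.2 μCi) in 0.1M Na cacodylate pH6.0, 2 h at 37 °C, in duplicate. Radioactive product separated on Dowex-1-formate, Sep-Pak C18 or Biogel P2 and counted by scintillation; blank without acceptor subtracted.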
# [6] = biological target: T1, Rat recombinant α2,3(O)ST (Rattus norvegicus, UniProt Q11205); assay: Sialyltransferase assay with cloned α2,3(O)ST; type: biochemical; conditions: Table I; acceptor 7.5 mM; 100% = 40560 CPM (3-O-MeGalβ1,4GlcNAcβ1,6(Galβ1,3)GalNAcα-O-Bn)
# T1 construct: purchased Calbiochem
# T1 sequence (Q11205 1-350): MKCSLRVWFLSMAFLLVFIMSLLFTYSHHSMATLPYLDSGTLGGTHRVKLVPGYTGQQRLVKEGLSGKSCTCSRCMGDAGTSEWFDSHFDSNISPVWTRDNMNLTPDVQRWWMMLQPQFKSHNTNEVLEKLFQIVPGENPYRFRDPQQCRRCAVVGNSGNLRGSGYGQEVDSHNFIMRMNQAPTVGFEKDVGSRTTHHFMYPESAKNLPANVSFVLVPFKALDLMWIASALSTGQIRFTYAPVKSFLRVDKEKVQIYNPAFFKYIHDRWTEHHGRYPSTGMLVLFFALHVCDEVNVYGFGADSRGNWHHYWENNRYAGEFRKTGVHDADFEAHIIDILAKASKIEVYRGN
# [7] = system: α1,2-L-FT plus α1,4-L-FT of breast tumor BC9400; assay: α1,2-L-FT plus α1,4-L-FT assay, breast tumor extract; type: biochemical, human; conditions: 1 mg protein of the tissue extract
# Method: as §1, with “duplicate. […]” for “duplicate.”
# [8] = system: α1,2-L-FT of breast tumor BC9400; assay: α1,2-L-FT assay, breast tumor extract; type: biochemical, human; conditions: 1 mg protein of the tissue extract
# Method: as §1
# (§4) α1,2, α1,6-, α1,3- and α1,4-fucosyltransferase (FT) assay reactions were carried out for 2 h in a reaction mixture containing 50 mM Hepes buffer (pH 7.5), 5 mM MnCl2, 7 mM ATP, 3 mM NaN3, 3 mM synthetic acceptor or 40 μg of fetuin-based acceptor, 0.05 μCi GDP-[14C]Fuc (290 mCi/mmol) and 10 μl cell extract in a total volume of 20 μl [Chandrasekaran et al., 1996]. Sulfotransferase (Sulfo T) assay reactions took 2 h and required a mixture containing 100 mM Tris-maleate (pH 7.2), 5 mM Mg Acetate, 5 mM ATP, 10 mM NaF, 10 mM BAL, 7.5 mM acceptor, 0.5 μCi of [^35S]PAPS (specific activity 2.4 Ci/mmol) and 10 μl of cell extract in a total volume of 30 μl [Chandrasekaran et al., 2004].
# as §3, with “For sulfotransferase assays, elution of the [^35S]-sulfated compound from Dowex-1-C1 column was achieved by 3 ml of 0.2M NaCl [Chandrasekaran et al., 2004].” left out
# [9] = system: α1,2-L-FT of colon tumor CC9338; assay: α1,2-L-FT assay, colon tumor extract; type: biochemical, human; conditions: 1 mg protein of the tissue extract
# Method: as §1, §4
# as §3, with “For sulfotransferase assays, elution of the [^35S]-sulfated compound from Dowex-1-C1 column was achieved by 3 ml of 0.2M NaCl [Chandrasekaran et al., 2004].” left out
smiles,measurement,setting,value
"CC(=O)NC1C(O)CC(OC2C(O)C(CO)OC(OC3C(O)C(CO)OC(OC(C)C(N)C(=O)O)C3NC(C)=O)C2O)(C(=O)O)OC1C(O)C(O)CO (stereo not drawn) [NeuAcα2,3Galβ1,3GalNAcα-O-Thr]","fold more potent than NeuAcα2,6GalNAcα-O-Thr in inhibiting Siglec 4 (MAG) binding",Siglec 4 (MAG),600 fold
"C=CCO[C@@H]1O[C@H](CO[C@@H]2O[C@H](CO)[C@@H](O)[C@H](O)[C@@H]2O[C@@H]2O[C@H](CO)[C@@H](O)[C@H](O)[C@H]2NC(C)=O)[C@@H](O)[C@H](O)[C@H]1O [GlcNAcβ1,2Manβ1,6Glcβ-O—Al]","b) β-GlcNAc:β1,4GalNAc-T activity: incorporation of radioactive sugar",[1],25.6 CPM × 10^−3
same,"a) β-GlcNAc:β1,4Gal-T activity: incorporation of radioactive sugar",[2],70.5 CPM × 10^−3
same,"b) β-GlcNAc:β1,4GalNAc-T activity: incorporation of radioactive sugar",[3],57.9 CPM × 10^−3
same,"a) β-GlcNAc:β1,4Gal-T activity: incorporation of radioactive sugar",[4],277.7 CPM × 10^−3
"CO[C@@H]1O[C@H](CO)[C@H](O)[C@H](O[C@@H]2O[C@H](CO)[C@@H](O)[C@H](O[C@@H]3O[C@H](CO)[C@H](O)[C@H](O)[C@H]3O)[C@H]2NC(C)=O)[C@H]1O [Galβ1,3GlcNAcβ1,3Galβ-O-Me]","α1,2-L-FT plus α1,4-L-FT activity: incorporation of radioactive sugar",[5],578.9 CPM × 10^−3
same,"Sialyltransferase activity (%) LNCaP α2,3(O)ST","LNCaP α2,3(O)ST",1.4%
same,"Sialyltransferase activity (%) Cloned α2,3(O)ST",[6],37.2%
same,"α1,2-L-FT plus α1,4-L-FT activity: incorporation of radioactive sugar",[7],16.8 CPM × 10^−3
OC[C@H]1O[C@@H](OCc2ccccc2)[C@H](O)[C@@H](O)[C@H]1O [Galβ-O-Bn],"α1,2-L-FT activity: incorporation of radioactive sugar",[8],9.8 CPM × 10^−3
same,"α1,2-L-FT activity: incorporation of radioactive sugar",[9],20.6 CPM × 10^−3
"CC(=O)NC1C(O)CC(OCC2OC(OC(C)C(N)C(=O)O)C(NC(C)=O)C(OC3OC(CO)C(O)C(O)C3O)C2O)(C(=O)O)OC1C(O)C(O)CO (stereo not drawn) [NeuAcα2,6(Galβ1,3)GalNAcα-O-Thr]","fold more potent than NeuAcα2,6GalNAcα-O-Thr in inhibiting Siglec 4 (MAG) binding",Siglec 4 (MAG),100 fold
